# Test results: ChEMBL document CHEMBL1201862, “PubChem BioAssay data set” (2004)
# Activity calls are given as the source filed them.
# Assays:
# [1] = biological target: T1, Short transient receptor potential channel 4 (Mus musculus, UniProt Q9QUQ5); assay: block of DAMGO-driven TRPC4 calcium entry – cell-based, HEK293 TRPC4/mu-opioid, Fluo-4 calcium, dose response (AID 434942); format: functional;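 further: potency of inhibitors blocking the TRPC4 calcium response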
# T1 sequence (Q9QUQ5 whole entry): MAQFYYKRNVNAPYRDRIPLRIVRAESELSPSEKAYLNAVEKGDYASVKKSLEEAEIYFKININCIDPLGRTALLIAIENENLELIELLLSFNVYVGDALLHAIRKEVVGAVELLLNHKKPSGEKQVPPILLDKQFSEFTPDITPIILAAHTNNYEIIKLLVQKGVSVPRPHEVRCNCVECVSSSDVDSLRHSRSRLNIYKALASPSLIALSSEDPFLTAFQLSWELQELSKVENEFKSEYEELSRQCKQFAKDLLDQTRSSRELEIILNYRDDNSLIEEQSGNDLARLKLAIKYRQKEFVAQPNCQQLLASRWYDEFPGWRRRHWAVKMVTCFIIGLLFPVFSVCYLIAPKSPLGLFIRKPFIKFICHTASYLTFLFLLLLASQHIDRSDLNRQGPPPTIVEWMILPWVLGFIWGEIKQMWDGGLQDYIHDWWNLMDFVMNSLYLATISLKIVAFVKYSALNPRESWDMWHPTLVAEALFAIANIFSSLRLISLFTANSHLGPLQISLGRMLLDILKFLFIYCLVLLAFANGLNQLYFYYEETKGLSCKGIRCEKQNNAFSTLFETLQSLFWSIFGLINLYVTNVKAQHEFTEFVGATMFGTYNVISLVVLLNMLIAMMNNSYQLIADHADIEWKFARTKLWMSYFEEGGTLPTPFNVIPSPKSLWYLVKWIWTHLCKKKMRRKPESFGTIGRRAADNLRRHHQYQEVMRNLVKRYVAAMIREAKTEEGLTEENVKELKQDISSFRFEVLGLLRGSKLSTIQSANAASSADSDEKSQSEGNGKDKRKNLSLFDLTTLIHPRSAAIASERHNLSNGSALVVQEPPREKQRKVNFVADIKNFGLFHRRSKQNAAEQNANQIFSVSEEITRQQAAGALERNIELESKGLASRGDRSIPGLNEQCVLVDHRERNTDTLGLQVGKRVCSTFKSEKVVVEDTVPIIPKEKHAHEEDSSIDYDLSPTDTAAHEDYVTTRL
# [2] = biological target: T2, E3 ubiquitin-protein ligase XIAP (Homo sapiens, UniProt P98170); assay: small molecules displacing peptide from XIAP – biochemical, IAP family, fluorescence polarization (AID 1018); format: functional
# [3] = biological target: T2, E3 ubiquitin-protein ligase XIAP; assay: Counter Screen using XIAP-Bir3 for Chemical Antagonists of Bir1/2 domains of IAP-family anti-apoptotic proteins. [Related pubchem assays (depositor defined):AID1018, AID1449, AID1514, AID1638, AID1749, AID1750, AID488957, AID488963]
# [4] = biological target: Alkaline phosphatase, placental type (Homo sapiens, UniProt P05187); assay: human placental alkaline phosphatase inhibition – biochemical, luminescence, confirmation (AID 1512); format: functional
# [5] = biological target: T3, Alkaline phosphatase, tissue-nonspecific isozyme (Homo sapiens, UniProt P05186); assay: potency against alkaline phosphatase TNAP – biochemical, luminescent, dose response, SAR follow-up (AID 1056)
# T3 sequence (P05186 whole entry): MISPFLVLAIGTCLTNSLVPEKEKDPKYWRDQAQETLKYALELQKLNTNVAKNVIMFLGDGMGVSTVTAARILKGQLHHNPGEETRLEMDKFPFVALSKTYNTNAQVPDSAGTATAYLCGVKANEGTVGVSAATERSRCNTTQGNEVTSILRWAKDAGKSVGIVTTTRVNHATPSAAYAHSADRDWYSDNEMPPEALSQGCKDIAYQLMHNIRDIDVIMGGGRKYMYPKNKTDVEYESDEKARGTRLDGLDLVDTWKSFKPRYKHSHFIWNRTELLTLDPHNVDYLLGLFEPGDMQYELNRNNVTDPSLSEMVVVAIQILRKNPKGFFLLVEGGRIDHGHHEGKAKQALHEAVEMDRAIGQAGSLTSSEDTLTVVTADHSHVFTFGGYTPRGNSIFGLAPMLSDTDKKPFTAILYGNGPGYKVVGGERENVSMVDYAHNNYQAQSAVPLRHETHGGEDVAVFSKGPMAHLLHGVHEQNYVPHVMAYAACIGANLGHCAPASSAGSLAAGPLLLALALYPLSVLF
# [6] = biological target: T4, Replicative DNA helicase DnaB (Mycobacterium tuberculosis, UniProt P9WMR3); assay: DnaB intein splicing inhibitors, dose response, biochemical, cell-free fluorescence (AID 449749); format: functional
# T4 sequence (P9WMR3 whole entry): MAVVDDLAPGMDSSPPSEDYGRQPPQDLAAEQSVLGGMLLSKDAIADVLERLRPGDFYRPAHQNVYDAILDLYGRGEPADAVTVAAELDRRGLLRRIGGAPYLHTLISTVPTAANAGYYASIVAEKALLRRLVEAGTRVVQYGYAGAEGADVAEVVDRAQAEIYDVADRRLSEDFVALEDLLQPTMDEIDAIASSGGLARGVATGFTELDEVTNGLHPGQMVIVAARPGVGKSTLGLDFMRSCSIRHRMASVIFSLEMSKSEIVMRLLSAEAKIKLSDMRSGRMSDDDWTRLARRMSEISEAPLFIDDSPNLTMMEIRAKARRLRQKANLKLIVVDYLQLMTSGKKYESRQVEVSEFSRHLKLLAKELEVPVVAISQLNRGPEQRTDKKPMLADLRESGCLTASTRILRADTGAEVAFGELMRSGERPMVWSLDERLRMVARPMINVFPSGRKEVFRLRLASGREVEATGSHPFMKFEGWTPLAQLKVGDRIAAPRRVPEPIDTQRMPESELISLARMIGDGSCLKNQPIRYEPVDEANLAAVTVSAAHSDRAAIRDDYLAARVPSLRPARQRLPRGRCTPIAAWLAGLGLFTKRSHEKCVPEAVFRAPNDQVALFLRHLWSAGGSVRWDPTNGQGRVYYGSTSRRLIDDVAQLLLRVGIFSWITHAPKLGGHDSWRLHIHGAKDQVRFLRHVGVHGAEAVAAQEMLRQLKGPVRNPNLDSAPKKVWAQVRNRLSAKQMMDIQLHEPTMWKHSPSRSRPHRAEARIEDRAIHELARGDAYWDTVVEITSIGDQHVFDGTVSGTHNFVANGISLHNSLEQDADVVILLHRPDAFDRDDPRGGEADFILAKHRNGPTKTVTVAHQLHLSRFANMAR
# [7] = Intein inhibitors as potential Tuberculosis drugs, a cytotoxicity screen. [Related pubchem assays (depositor defined):AID2221, AID2223, AID434968, AID435010, AID449749, AID449750, AID489010]; format: functional
# Protein RecA = biological target: T5, Protein RecA (Mycobacterium tuberculosis, UniProt P9WHJ3); assay: Fluorescence Cell-Free Homogeneous Dose Retest to Identify Inhibitors of RecA-Intein Splicing Activity. [Related pubchem assays (depositor defined):AID2097, AID2223, AID489010, AID492950]; format: functional
# T5 sequence (P9WHJ3 whole entry): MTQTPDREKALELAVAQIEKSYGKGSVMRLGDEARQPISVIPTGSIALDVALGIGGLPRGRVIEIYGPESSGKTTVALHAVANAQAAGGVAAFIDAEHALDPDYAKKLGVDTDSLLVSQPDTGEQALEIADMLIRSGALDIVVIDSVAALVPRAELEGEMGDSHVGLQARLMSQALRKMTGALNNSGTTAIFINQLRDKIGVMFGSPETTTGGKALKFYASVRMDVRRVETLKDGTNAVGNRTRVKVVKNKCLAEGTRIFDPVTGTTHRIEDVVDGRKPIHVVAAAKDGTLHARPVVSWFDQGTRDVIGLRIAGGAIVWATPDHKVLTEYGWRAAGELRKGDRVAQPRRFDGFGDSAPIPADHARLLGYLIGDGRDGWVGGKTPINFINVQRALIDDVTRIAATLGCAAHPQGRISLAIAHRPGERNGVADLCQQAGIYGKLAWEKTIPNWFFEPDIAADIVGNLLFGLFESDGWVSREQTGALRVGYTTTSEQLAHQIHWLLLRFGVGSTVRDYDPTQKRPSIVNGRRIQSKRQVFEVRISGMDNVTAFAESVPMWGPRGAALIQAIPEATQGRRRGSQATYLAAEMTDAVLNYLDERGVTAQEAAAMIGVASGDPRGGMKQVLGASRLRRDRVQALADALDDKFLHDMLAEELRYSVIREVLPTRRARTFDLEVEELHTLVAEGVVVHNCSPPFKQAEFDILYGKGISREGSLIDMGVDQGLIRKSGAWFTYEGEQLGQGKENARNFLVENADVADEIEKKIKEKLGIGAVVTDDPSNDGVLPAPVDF
# [8] = HEK-293T viability loss after treatment – luminescence, T-cell screen hits, cytotoxicity control for TCR NF-kB inhibitor project, dose response (AID 489026); format: functional, cell-based;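 further: cells exposed to compound about 14 hours before the viability readout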
# [9] = biological target: Voltage-dependent T-type calcium channel subunit alpha-1H (Homo sapiens, UniProt O95180); format: functional;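 further: channel activity triggered by adding a high calcium stimulation buffer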
# SUMO-activating enzyme = SUMO-activating enzyme (Homo sapiens, UniProt Q9UBT2); assay: blockers of UBC9-mediated SUMO conjugation – biochemical, AlphaScreen, SUMOylation inhibitor project, confirmation (AID 2018); format: functional
# X-box-binding protein 1 = biological target: T6, X-box-binding protein 1 (Homo sapiens, UniProt P17861); format: functional, Cricetulus griseus;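 further: confirmatory dose-response counter-screen serving a CHOP assay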
# T6 sequence (P17861 whole entry): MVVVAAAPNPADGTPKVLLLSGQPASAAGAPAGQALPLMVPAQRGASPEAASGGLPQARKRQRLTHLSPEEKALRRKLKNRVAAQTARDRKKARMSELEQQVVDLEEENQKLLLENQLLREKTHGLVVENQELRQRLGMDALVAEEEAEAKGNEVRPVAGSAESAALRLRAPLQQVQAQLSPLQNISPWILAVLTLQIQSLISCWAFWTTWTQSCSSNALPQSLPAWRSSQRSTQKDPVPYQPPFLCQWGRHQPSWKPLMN
# 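Wherever CC50 is given: cells exposed to compound for 72 hours before luminescence readout.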
# Chain of Alkaline phosphatase, placental type (P05187 whole entry): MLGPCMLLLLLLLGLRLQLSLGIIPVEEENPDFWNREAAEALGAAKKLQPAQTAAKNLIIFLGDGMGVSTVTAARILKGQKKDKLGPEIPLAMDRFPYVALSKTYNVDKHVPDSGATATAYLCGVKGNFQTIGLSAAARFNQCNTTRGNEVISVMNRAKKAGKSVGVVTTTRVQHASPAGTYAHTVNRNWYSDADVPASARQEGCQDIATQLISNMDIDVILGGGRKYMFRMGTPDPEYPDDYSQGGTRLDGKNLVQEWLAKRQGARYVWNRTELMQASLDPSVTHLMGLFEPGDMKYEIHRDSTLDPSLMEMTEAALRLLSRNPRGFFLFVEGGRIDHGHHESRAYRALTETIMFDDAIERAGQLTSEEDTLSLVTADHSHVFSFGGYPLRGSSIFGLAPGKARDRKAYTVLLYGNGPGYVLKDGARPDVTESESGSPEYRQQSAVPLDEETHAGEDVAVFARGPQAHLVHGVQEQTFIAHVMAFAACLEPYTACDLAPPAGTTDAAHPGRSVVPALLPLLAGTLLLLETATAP
# T2 sequence (P98170 whole entry): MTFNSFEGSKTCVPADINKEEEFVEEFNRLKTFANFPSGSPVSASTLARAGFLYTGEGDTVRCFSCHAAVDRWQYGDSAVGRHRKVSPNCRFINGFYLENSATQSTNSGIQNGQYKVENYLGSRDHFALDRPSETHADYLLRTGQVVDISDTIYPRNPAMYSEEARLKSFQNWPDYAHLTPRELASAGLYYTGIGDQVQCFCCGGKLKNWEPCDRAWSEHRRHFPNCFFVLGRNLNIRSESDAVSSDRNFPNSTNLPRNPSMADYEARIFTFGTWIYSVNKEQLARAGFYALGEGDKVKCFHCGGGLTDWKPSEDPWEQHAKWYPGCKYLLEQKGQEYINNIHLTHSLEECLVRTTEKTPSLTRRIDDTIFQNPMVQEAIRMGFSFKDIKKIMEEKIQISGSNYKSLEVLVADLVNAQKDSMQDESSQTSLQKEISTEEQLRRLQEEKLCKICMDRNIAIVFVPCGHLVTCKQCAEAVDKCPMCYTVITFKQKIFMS
# Chain of Voltage-dependent T-type calcium channel subunit alpha-1H (O95180 whole entry): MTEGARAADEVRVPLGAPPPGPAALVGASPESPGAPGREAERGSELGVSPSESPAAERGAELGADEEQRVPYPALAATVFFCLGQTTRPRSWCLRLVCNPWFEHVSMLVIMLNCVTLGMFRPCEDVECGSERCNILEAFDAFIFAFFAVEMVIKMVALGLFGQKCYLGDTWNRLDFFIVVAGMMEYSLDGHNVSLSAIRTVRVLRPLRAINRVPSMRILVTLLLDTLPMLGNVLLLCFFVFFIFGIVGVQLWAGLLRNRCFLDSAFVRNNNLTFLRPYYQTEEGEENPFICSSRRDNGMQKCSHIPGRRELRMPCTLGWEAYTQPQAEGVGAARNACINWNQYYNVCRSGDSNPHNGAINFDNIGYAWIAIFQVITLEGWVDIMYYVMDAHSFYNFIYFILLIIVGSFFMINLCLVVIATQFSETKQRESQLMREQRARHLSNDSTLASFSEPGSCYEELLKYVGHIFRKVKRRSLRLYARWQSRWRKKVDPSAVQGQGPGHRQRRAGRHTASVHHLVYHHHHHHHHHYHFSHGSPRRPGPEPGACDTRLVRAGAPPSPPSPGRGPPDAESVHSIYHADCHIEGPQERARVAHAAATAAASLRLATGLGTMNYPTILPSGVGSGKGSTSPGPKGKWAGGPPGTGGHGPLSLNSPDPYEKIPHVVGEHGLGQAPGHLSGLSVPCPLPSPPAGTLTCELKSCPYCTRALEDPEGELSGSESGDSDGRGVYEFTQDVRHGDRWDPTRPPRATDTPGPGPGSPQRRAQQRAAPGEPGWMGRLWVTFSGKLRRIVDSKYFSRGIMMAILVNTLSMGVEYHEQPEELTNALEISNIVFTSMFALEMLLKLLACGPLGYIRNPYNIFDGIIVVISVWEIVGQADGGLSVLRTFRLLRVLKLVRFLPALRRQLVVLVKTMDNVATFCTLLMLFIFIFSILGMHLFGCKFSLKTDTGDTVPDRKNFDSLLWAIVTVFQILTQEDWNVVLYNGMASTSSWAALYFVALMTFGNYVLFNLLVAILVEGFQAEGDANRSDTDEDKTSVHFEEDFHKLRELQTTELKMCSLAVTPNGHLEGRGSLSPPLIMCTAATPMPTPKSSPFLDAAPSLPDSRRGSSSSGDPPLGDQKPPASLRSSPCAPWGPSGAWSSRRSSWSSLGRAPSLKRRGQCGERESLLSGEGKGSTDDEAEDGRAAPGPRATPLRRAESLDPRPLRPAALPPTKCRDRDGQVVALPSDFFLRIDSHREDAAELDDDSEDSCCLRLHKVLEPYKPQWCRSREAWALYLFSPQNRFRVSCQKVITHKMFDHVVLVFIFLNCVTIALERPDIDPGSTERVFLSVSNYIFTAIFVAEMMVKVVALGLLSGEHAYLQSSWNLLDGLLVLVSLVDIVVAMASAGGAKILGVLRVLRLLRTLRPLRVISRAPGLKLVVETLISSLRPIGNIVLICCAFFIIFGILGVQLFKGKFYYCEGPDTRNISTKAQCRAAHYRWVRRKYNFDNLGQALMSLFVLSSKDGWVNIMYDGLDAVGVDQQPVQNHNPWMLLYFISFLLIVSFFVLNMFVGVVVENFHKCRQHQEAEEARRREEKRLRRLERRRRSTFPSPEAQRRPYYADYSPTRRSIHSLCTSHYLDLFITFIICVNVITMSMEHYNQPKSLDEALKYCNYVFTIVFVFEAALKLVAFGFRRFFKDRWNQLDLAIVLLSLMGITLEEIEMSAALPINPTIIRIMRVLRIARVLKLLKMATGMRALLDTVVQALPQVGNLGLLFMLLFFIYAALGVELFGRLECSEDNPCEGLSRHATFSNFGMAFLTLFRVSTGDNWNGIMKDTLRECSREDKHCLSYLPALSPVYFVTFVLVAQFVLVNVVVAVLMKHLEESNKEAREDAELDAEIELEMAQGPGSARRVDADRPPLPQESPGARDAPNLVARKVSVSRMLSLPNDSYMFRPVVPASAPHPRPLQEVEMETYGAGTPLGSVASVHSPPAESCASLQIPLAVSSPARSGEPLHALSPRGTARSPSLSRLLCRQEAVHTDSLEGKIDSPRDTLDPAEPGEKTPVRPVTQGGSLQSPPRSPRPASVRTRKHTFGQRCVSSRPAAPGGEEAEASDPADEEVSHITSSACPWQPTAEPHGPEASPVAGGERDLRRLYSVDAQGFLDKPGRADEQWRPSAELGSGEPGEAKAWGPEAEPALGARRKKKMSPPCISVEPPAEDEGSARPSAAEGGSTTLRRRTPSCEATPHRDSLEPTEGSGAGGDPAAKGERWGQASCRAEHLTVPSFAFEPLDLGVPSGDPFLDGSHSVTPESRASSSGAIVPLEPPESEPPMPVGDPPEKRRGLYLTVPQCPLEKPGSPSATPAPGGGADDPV
# Chain of SUMO-activating enzyme (Q9UBE0 whole entry): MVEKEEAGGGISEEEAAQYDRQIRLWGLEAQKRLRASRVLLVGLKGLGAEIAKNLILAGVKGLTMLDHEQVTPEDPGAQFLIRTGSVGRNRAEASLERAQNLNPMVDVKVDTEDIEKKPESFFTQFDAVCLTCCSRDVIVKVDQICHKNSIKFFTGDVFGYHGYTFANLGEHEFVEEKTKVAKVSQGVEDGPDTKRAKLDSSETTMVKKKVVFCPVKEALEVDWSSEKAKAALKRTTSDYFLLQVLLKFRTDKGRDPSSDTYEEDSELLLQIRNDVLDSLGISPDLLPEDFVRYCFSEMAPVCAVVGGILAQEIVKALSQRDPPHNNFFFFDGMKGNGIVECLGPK
# Chain of SUMO-activating enzyme (Q9UBT2 whole entry): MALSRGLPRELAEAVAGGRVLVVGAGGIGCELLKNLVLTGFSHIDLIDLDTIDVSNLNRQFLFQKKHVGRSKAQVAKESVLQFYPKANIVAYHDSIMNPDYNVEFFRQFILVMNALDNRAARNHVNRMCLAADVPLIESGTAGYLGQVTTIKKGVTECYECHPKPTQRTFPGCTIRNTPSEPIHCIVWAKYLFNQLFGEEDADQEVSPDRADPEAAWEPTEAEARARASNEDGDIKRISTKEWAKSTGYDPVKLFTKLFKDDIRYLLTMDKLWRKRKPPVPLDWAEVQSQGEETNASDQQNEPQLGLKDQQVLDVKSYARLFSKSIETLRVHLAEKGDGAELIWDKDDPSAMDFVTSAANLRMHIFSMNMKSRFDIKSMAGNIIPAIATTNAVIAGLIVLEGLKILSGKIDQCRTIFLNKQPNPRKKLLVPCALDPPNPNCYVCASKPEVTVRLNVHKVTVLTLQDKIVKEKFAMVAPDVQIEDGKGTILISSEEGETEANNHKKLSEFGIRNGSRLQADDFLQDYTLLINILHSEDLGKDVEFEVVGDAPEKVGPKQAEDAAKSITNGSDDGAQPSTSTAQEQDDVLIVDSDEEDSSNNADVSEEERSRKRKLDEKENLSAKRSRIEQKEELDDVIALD
smiles,measurement,setting,value
CN(C)CCCN(C(=O)c1ccc(S(=O)(=O)N2CCCC2)cc1)c1nc2c(F)cc(F)cc2s1,EC50,[1],3.76 µM (active)
CN(CC(=O)O)c1ccc(C(F)(F)F)cc1[N+](=O)[O-],IC50,[2],> 100 µM (not active)
same,IC50,[3],> 100 µM (inactive)
C=CCn1c(SCC(=O)c2ccc(O)c(O)c2)nnc1-c1ccc(OC)cc1,IC50,[4],13.6 µM (active)
same,IC50,[5],> 100 µM (inactive)
COc1cc(NCCCCCCCN)c2ncccc2c1,AC50,[6],2.12 µM (active)
same,CC50,[7],> 40 µM (active)
same,EC50,Protein RecA,0.401 µM (active)
same,IC50,[8],46.9 µM (inactive)
Cc1oc(-c2ccc(Cl)cc2)nc1CN1CCC(C(=O)NCc2cccs2)CC1,EC50,[1],1.5 µM (active)
same,EC50,[9],4.32 µM (active)
Cc1ccc(-c2nnc(SCC(=O)c3ccc(O)c(O)c3)n2Cc2ccco2)cc1,IC50,[4],5.32 µM (active)
same,IC50,[5],19.2 µM (active)
Cc1cc(NC(=O)c2cc([N+](=O)[O-])cc([N+](=O)[O-])c2)n(-c2ccccc2)n1,IC50,[2],> 100 µM (not active)
same,IC50,[3],> 100 µM (inactive)
Cc1cccc(NC(=O)/C(C#N)=C/c2cn(CC(=O)NCc3ccco3)c3ccccc23)c1C,IC50,SUMO-activating enzyme,36.2 µM (active)
same,Absolute IC50 (XBP1),X-box-binding protein 1,< 10 µM
O=c1oc2ccccc2c(Nc2ccccc2)c1CN1CCCCC1,EC50,[1],3.35 µM (active)
COc1ccccc1CNC(=O)COC(=O)Cc1ccsc1,IC50,[2],> 100 µM (not active)
same,IC50,[3],> 100 µM (inactive)
Cc1cc(C(=O)NCc2ccc(O)c(O)c2)oc1C,IC50,[4],52.7 µM (active)
same,IC50,[5],> 100 µM (inactive)
